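The compound was tested at five concentrations on cells cultured in 96-well plates, with a 48-hour exposure period. GI50: concentration for 50% inhibition of growth.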 Active and inactive are the calls of the source. No stated cut-off is given here; in the data, active = GI50 up to about 1.1 µM and inactive = higher.
Experiments:
Experiment in all cases: NCI anticancer screen, dose series, 48 h
786-0 = system: 786-0
A549 = system: A549
CCRF-CEM = system: CCRF-CEM
EKVX = system: EKVX
HCT-15 = system: HCT-15
IGROV-1 = system: IGROV-1
K562 = system: K562
LOX IMVI = system: LOX IMVI
NCI-H23 = system: NCI-H23
OVCAR-4 = system: OVCAR-4
RPMI-8226 = system: RPMI-8226
RXF 393 = system: RXF 393
SF-295 = system: SF-295
SF-539 = system: SF-539
SK-MEL-5 = system: SK-MEL-5
SN12C = system: SN12C
SW-620 = system: SW-620
TK-10 = system: TK-10
UACC-257 = system: UACC-257
SNB-75 = system: SNB-75

| SMILES | GI50 (786-0) | GI50 (A549) | GI50 (CCRF-CEM) | GI50 (EKVX) | GI50 (HCT-15) [µM] | GI50 (IGROV-1) | GI50 (K562) | GI50 (LOX IMVI) | GI50 (NCI-H23) | GI50 (OVCAR-4) | GI50 (RPMI-8226) | GI50 (RXF 393) | GI50 (SF-295) | GI50 (SF-539) | GI50 (SK-MEL-5) | GI50 (SN12C) | GI50 (SW-620) | GI50 (TK-10) | GI50 (UACC-257) | GI50 (SNB-75) |
| --- | --- | --- | --- | --- | --- | --- | --- | --- | --- | --- | --- | --- | --- | --- | --- | --- | --- | --- | --- | --- |
| O=C(CCc1ccc(O)c(O)c1)OCCc1ccccc1 | 19.7 µM (inactive) | > 100 µM (inactive) | 4.86 µM (inactive) | > 100 µM (inactive) | > 53 | 54.1 µM (inactive) | 20.4 µM (inactive) | 22.5 µM (inactive) | > 65.3 µM (inactive) | 29.6 µM (inactive) | 18.9 µM (inactive) | > 67 µM (inactive) | > 100 µM (inactive) | 18.6 µM (inactive) | 42.2 µM (inactive) | > 61.1 µM (inactive) | 31.1 µM (inactive) | > 100 µM (inactive) | > 82.2 µM (inactive) |  |
| CCOP(=O)(OCC)C(Cc1c[nH]c2ccccc12)C(=O)O (centres undefined) |  | > 100 µM (inactive) | > 100 µM (inactive) |  | > 100 | > 100 µM (inactive) | > 100 µM (inactive) | > 100 µM (inactive) | > 100 µM (inactive) | > 100 µM (inactive) | > 100 µM (inactive) |  | > 100 µM (inactive) |  | > 100 µM (inactive) | > 100 µM (inactive) | > 100 µM (inactive) | > 100 µM (inactive) | > 100 µM (inactive) | > 100 µM (inactive) |
| CC(NC(=O)c1ccc(OP(=O)(OCC2=CC(=O)c3ccccc3C2=O)N(C)CCCCCl)cc1)c1ccc(OCC2CCCCC2)c(C(N)=O)c1 (centres undefined) | 14.6 µM (inactive) | 1.67 µM (inactive) | 7.71 µM (inactive) |  | 12.2 | 9.66 µM (inactive) | 17.4 µM (inactive) | 4.27 µM (inactive) | 2.7 µM (inactive) |  | 11.2 µM (inactive) |  | 5.06 µM (inactive) | 15.2 µM (inactive) | 0.328 µM (active) | 13.4 µM (inactive) | 12.4 µM (inactive) | 25.1 µM (inactive) | 4.59 µM (inactive) | 0.0122 µM (active) |
| COc1ccc(CCC2NCCc3cc(OC)c(OC)cc32)cc1 (centres undefined) | > 100 µM (inactive) | > 100 µM (inactive) | > 100 µM (inactive) | > 100 µM (inactive) | > 100 |  | > 100 µM (inactive) |  | > 100 µM (inactive) | 25.3 µM (inactive) | > 100 µM (inactive) |  | > 100 µM (inactive) | > 100 µM (inactive) | > 100 µM (inactive) | > 100 µM (inactive) | > 100 µM (inactive) | > 100 µM (inactive) | > 100 µM (inactive) | > 100 µM (inactive) |
| O=C1CSC(c2ccc(Cl)cc2Cl)N1c1ccc(Oc2ccc(Cl)cc2)c(Cl)c1 (centres undefined) | 17.5 µM (inactive) | 27 µM (inactive) | 13.5 µM (inactive) | 23.3 µM (inactive) | 25.6 | 28.1 µM (inactive) | 26.2 µM (inactive) | 16.7 µM (inactive) | 27 µM (inactive) | 23.8 µM (inactive) | 13.8 µM (inactive) |  | 22 µM (inactive) | 21.6 µM (inactive) | 19 µM (inactive) | 37.7 µM (inactive) | 36.5 µM (inactive) | 51.4 µM (inactive) | 37.1 µM (inactive) | 20.7 µM (inactive) |
| O=C(CC(=O)Nc1ccc(C(=O)O)cc1)Nc1ccc(C(=O)O)cc1 | > 100 µM (inactive) | > 100 µM (inactive) | > 100 µM (inactive) | > 100 µM (inactive) | > 10 | > 100 µM (inactive) | > 100 µM (inactive) | > 100 µM (inactive) | > 100 µM (inactive) | > 100 µM (inactive) | > 100 µM (inactive) |  | > 100 µM (inactive) | > 100 µM (inactive) | > 100 µM (inactive) | > 100 µM (inactive) | > 100 µM (inactive) | > 100 µM (inactive) | > 100 µM (inactive) |  |
| CCOC(=O)c1ccc(C(=O)C(C(C)=O)C(=O)OC(C)(C)C)[nH]1 (centres undefined) | > 100 µM (inactive) | > 100 µM (inactive) |  | > 100 µM (inactive) | > 100 | > 100 µM (inactive) | > 100 µM (inactive) | > 100 µM (inactive) | > 100 µM (inactive) | > 100 µM (inactive) | > 100 µM (inactive) | > 100 µM (inactive) | > 100 µM (inactive) |  | > 100 µM (inactive) | > 100 µM (inactive) | > 100 µM (inactive) |  |  | > 100 µM (inactive) |
| N#CN=C(N(Cc1ccccc1)Cc1ccccc1)N(Cc1ccccc1)Cc1ccccc1 |  | 6.44 µM (inactive) | 5.73 µM (inactive) | 7.11 µM (inactive) | 6.37 | 3.48 µM (inactive) | 4.36 µM (inactive) | 20.4 µM (inactive) |  |  | 3.88 µM (inactive) |  | > 100 µM (inactive) | 46.7 µM (inactive) |  | 23.4 µM (inactive) | 9.82 µM (inactive) |  | 8.47 µM (inactive) | 95.7 µM (inactive) |
| Cc1c2c(n(CCN(C)C)c1C)NN=C(C#N)S2(=O)=O | > 100 µM (inactive) | > 100 µM (inactive) |  | > 100 µM (inactive) | > 100 | > 100 µM (inactive) | > 100 µM (inactive) | > 100 µM (inactive) | > 100 µM (inactive) | > 100 µM (inactive) | > 100 µM (inactive) |  |  | > 100 µM (inactive) |  | > 100 µM (inactive) | > 100 µM (inactive) | > 100 µM (inactive) | > 100 µM (inactive) | > 100 µM (inactive) |
| CC1=C2c3c(C)ccc4ccc(C)c(c34)C2(O)C(C)C1=O (centres undefined) | 51.2 µM (inactive) | 40.3 µM (inactive) |  | 70.8 µM (inactive) | 42.8 | 49.2 µM (inactive) | 49.5 µM (inactive) | 45.4 µM (inactive) |  | 65 µM (inactive) | 33 µM (inactive) |  |  | > 100 µM (inactive) | 29.2 µM (inactive) | > 100 µM (inactive) | > 100 µM (inactive) | > 100 µM (inactive) | 53.8 µM (inactive) | 30.8 µM (inactive) |
| CCN(CC)c1ccc2cc(C(=O)Nc3nc(C45CC6CC(CC(C6)C4)C5)cs3)c(=O)oc2c1 | > 100 µM (inactive) | > 100 µM (inactive) | > 100 µM (inactive) | > 100 µM (inactive) | > 100 | > 100 µM (inactive) | > 100 µM (inactive) | > 100 µM (inactive) | > 100 µM (inactive) | > 100 µM (inactive) | > 100 µM (inactive) | > 100 µM (inactive) | > 100 µM (inactive) | > 100 µM (inactive) | > 100 µM (inactive) | > 100 µM (inactive) | > 100 µM (inactive) | > 100 µM (inactive) | > 100 µM (inactive) |  |
| COc1ccc(-c2c3c([nH]c(=S)c2C#N)CC(C)(C)CC3=O)cc1 | > 100 µM (inactive) | > 100 µM (inactive) | 56.2 µM (inactive) | > 100 µM (inactive) | > 100 | > 100 µM (inactive) | 61.7 µM (inactive) | > 100 µM (inactive) | > 100 µM (inactive) | > 100 µM (inactive) | > 100 µM (inactive) | > 100 µM (inactive) | > 100 µM (inactive) | > 100 µM (inactive) | > 100 µM (inactive) | > 100 µM (inactive) | > 100 µM (inactive) | > 100 µM (inactive) | > 100 µM (inactive) |  |
| COC1CC(=O)C2C(=O)N(c3ccccc3)C(=O)C23C(C(=O)c2ccccc2)=C(C)NC13O (centres undefined) | 2.12 µM (inactive) | 34.4 µM (inactive) | 3.69 µM (inactive) | 17.4 µM (inactive) | 8.49 | 10.4 µM (inactive) | < 0.01 µM (active) | 13.4 µM (inactive) | 15.3 µM (inactive) | 4.92 µM (inactive) | 5.08 µM (inactive) |  | 32.4 µM (inactive) | 5.32 µM (inactive) | 18.6 µM (inactive) | 16.6 µM (inactive) | 5.02 µM (inactive) | 6.32 µM (inactive) | 22.9 µM (inactive) |  |
| COC(=O)C1CCC(=O)N1C(c1ccc2c(c1)OCO2)c1cc(OC)c(OC)c(OC)c1 (centres undefined) | > 100 µM (inactive) | > 100 µM (inactive) | > 100 µM (inactive) | > 100 µM (inactive) | > 100 | > 100 µM (inactive) | > 100 µM (inactive) | > 100 µM (inactive) | > 100 µM (inactive) | > 100 µM (inactive) | > 100 µM (inactive) |  | > 100 µM (inactive) | > 100 µM (inactive) | > 100 µM (inactive) | > 100 µM (inactive) | > 100 µM (inactive) | > 100 µM (inactive) | > 100 µM (inactive) | > 100 µM (inactive) |
| CCOC(=O)c1c(-c2ccccc2)c(C(OC(c2ccccc2)c2c(-c3ccccc3)c(C(=O)OCC)n3ccccc23)c2ccccc2)c2ccccn12 (centres undefined) | > 100 µM (inactive) | > 100 µM (inactive) | > 100 µM (inactive) | > 100 µM (inactive) | > 100 | > 100 µM (inactive) | > 100 µM (inactive) | > 100 µM (inactive) | > 100 µM (inactive) | > 100 µM (inactive) | > 100 µM (inactive) | > 100 µM (inactive) | > 100 µM (inactive) |  |  | > 100 µM (inactive) | > 100 µM (inactive) | > 100 µM (inactive) | > 100 µM (inactive) | > 100 µM (inactive) |
| O=C1OC(c2ccc(O)cc2)(c2ccc(O)cc2)c2ccc(Cl)c3cccc1c23.O=C1OC(c2ccc(O)cc2)(c2ccc(O)cc2)c2cccc3c(Cl)ccc1c23 |  | 18.8 µM (inactive) | 15.5 µM (inactive) | 0.075 µM (active) | 10.8 | 12.5 µM (inactive) | 21.2 µM (inactive) | 10.9 µM (inactive) | 11.1 µM (inactive) | 0.0384 µM (active) | 12.5 µM (inactive) | 10.8 µM (inactive) | 12.2 µM (inactive) | 10.7 µM (inactive) | 12.7 µM (inactive) | 8.47 µM (inactive) | 14.9 µM (inactive) | 13.6 µM (inactive) | 22.2 µM (inactive) |  |

Reference: ChEMBL document CHEMBL1201862, “PubChem BioAssay data set” (2004)
